{"source": "paper PMC2850272", "about": "(Bioorganic & medicinal chemistry, 2010)", "conditions": "pH 7.4", "data": [{"substance": "2-(Benzo[d][1,3]dioxol-5-yl)-4-chloro-3-(ethoxymethyl)-7-methoxyquinoline [28a]", "values": [{"measurement": "Permeability (PAMPA)", "result": "802±370 10^−6 cm/s"}]}, {"substance": "Ethyl 2-(benzo[d][1,3]dioxol-5-yl)-7-methoxy-4-(methylamino)quinoline-3-carboxylate [25a]", "values": [{"measurement": "Permeability (PAMPA)", "result": "2013±179 10^−6 cm/s"}]}, {"substance": "2-(Benzo[d][1,3]dioxol-5-yl)-3-(ethoxymethyl)-5-methoxyquinoline [30b]", "values": [{"measurement": "Permeability (PAMPA)", "result": "2796±1746 10^−6 cm/s"}]}, {"substance": "Ethyl 2-(benzo[d][1,3]dioxol-5-yl)-5-methoxy-4-(methylamino)quinoline-3-carboxylate [25b]", "values": [{"measurement": "Permeability (PAMPA)", "result": "1240±154 10^−6 cm/s"}]}]}
